Reference: patent US20230381192A1, “METHODS FOR CONTROLLING AND PREDICTING RECOVERY AFTER NMBA ADMINISTRATION” (Cornell University, priority 2020, published 2023)
Like-named read-outs stand apart in the source and are kept apart here.

Assays:
Healthy volunteers = assay: Phase I: NMB measured by mechanomyography (twitch T1, TOFR) in healthy volunteers under sevoflurane/N2O; format: in vivo, human; settings: for mean time to 95% T1 recovery: spontaneous recovery
Excerpt: Twitch Height: A peripheral nerve stimulator that applies supramaximal. stimuli to the ulnar nerve at the wrist via surface electrodes was used for neuromuscular monitoring. Following anesthesia induction, single twitch stimuli (0.10 Hz) may be delivered continuously during a 15- to 20- minute period to establish baseline twitch height. Single twitch may continue during and following NMBA administration.
Train-of-Four twitch stimulation pattern ratio (TOFR): The TOP delivers 4 supramaximal electrical impulses that involve four equally strong twitches of the stimulated muscle. A fade of the twitches appears when the neuromuscular blockade increases. Comparison of the fourth twitch (T4) to the first twitch (T1) provides the TOFR.
(§1) (Abstract available in the final supplement of the Journal of Anesthesia and Analgesia, May 2020 (Volume 30, Issue pages 73-74), which is incorporated herein by reference. Healthy volunteers (n=34) aged 18 to 55 of either gender gave informed consent to an 1RB-approved Phase I protocol, NMB was measured by mechanomyography during sevoflurane (0.5 MAC)/N20 (70%) anesthesia. Each volunteer received a single IV bolus of RP1000,
An ED95 dose of 0.08 mg/kg was established under sevoflurane anesthesia and a dose of 0.14 mg/kg led to 100% twitch suppression in all subjects. At doses below 0,08 mg/kg, (n=18) 100% twitch inhibition occurred in NONE of the volunteers. […] volunteers, however, who were given doses of 0.08, 0.10, or 0.14 mg/kg, developed 100% block: (n=2 of 6 at 0.08, 6 of 6 at 0.10, and 4 of 4 at 0,14 mg/kg).
During spontaneous recovery from 100% block, in all volunteers, TOE stimulation was applied to the ulnar nerve every 20 seconds and the response of the thumb was monitored continuously until T1 of TOE had recovered to 95% of baseline and TOFR had reached 0.90. The total duration of block was calculated from injection to recovery of T1 to 95 percent of baseline and to recovery of TOFR to 0.90. The 5-95% recovery intervals during recovery from 100% block were measured, Following the completion of data acquisition for all dosage groups, a comparison was made by ANOVA of the 5-95% recovery times resulting after doses of 0.08, 0.10 and 0.14 mg/kg. Recovery data in the 12 volunteers who developed 100% block were then combined to show a single composite recovery pattern. ANOVA was again done to compare the recovery data (5-95% intervals) for the composite group to the corresponding intervals for the separate dosage groups of 0.08, 0.10, and 0,14 mg/kg.

[1] = Phase I pharmacokinetics after single IV bolus; format: in vivo; settings: both sexes, human
Protocol: as §1

[2] = human, Composite of 0.08, 0.10, 0.14 mg/kg groups (n=12)
[3] = human, dose 0.08 mg/kg, recovery from 100% block
[4] = human, dose 0.1 mg/kg, recovery from 100% block
[5] = human, dose 0.14 mg/kg, recovery from 100% block
[6] = human, doses ≥ED95, approximately

COc1ccc(C[C@@H]2c3cc(OC)c(OC)cc3CC[N@@+]2(C)CCCOC(=O)/C=C/C(=O)OCCC[N@+]2(C)CCc3cc(OC)c(OC)cc3[C@H]2Cc2ccc(OC)c(OC)c2)cc1OC.[Cl-].[Cl-] [RP1000]
Time to maximum T1 recovery (Healthy volunteers; human, 0.08 mg/kg): about 50 minutes | mean time to T4:T1>0.9 (Healthy volunteers; human, 0.08 mg/kg): about 50 minutes | volunteers who developed 100% block (Healthy volunteers; human, 0.08 mg/kg): 2 of 6 | Time to maximum T1 recovery (Healthy volunteers; human, 0.10 mg/kg): about 70 minutes | mean time to T4:T1>0.9 (Healthy volunteers; human, 0.10 mg/kg): about 70 minutes | volunteers who developed 100% block (Healthy volunteers; human, 0.10 mg/kg): 6 of 6 | mean time from 5% to 95% T1 recovery (Healthy volunteers; human, 0.1 mg/kg and 0.145 mg/kg doses): 35 to 40 min | Time to maximum T1 recovery (Healthy volunteers; human, 0.14 mg/kg): about 70 minutes | mean time to T4:T1>0.9 (Healthy volunteers; human, 0.14 mg/kg): ~80 min | volunteers who developed 100% block (Healthy volunteers; human, 0.14 mg/kg): 4 of 4 | Recovery Time, Recovery Interval 5%-95% (Healthy volunteers; [2]): 37.4 ± 6.4 min | Recovery Time, Recovery Interval 25%-75% (Healthy volunteers; [2]): 14.9 ± 3.0 min | Recovery Time, Recovery Interval 5%-95% (Healthy volunteers; [3]): 34.8 ± 12.5 min | Recovery Time, Recovery Interval 25%-75% (Healthy volunteers; [3]): 15.7 ± 8.4 min | Recovery Time, Recovery Interval 5%-95% (Healthy volunteers; [4]): 39.4 ± 6.5 min | Recovery Time, Recovery Interval 25%-75% (Healthy volunteers; [4]): 15.1 ± 2.0 min | Recovery Time, Recovery Interval 5%-95% (Healthy volunteers; [5]): 35.6 ± 3.1 min | Recovery Time, Recovery Interval 25%-75% (Healthy volunteers; [5]): 14.2 ± 0.9 min | twitch suppression (Healthy volunteers; human, dose of 0.14 mg/kg, in all subjects): 100% | volunteers in whom 100% twitch inhibition occurred (Healthy volunteers; human, doses below 0.08 mg/kg (n=18)): NONE | volunteers who developed 100% block (Healthy volunteers; human, doses of 0.08, 0.10, or 0.14 mg/kg pooled): 12 of 14 | time to 95% T1 suppression (Healthy volunteers; [6]): 2 to 3 min | time to maximum T1 suppression (Healthy volunteers; [6]): 3 to 5 min | duration of NMB effect (Healthy volunteers; human, injection): intermediate duration | onset of action (Healthy volunteers; human, injection): rapid onset of action | mean time to 95% T1 recovery (Healthy volunteers; human, 0.08 mg/kg): approximately 45 minutes | mean time to 95% T1 recovery (Healthy volunteers; human, 0.10 mg/kg): ~55 min | mean time to 95% T1 recovery (Healthy volunteers; human, 0.14 mg/kg): ~60 min | ED95 dose (Healthy volunteers; human, under sevoflurane anesthesia): 0.08 mg/kg | ED 95 for humans (Healthy volunteers; humans): about 0.077 mg/kg | half-life ([1]; in vivo, intravenous, all dosage groups, read-out: half-life of elimination): 25 to 26 min | AUC(0-t) ([1]; plasma, iv, 0.04 mg/kg, single IV bolus 0.04 mg/kg (n = 6), read-out: AUClast, Geometric Mean (converted)): 132 ng·h/mL | AUC(0-t) ([1]; plasma, iv, 0.04 mg/kg, single IV bolus 0.04 mg/kg (n = 6), read-out: AUClast, Mean (converted)): 6.35 ng·h/mL | clearance ([1]; plasma, iv, 0.04 mg/kg, single IV bolus 0.04 mg/kg (n = 6), read-out: CL (clearance), Geometric Mean): 387 mL/min | clearance ([1]; plasma, iv, 0.04 mg/kg, single IV bolus 0.04 mg/kg (n = 6), read-out: CL (clearance), Mean (SD)): 400 mL/min | Cmax ([1]; plasma, iv, 0.04 mg/kg, single IV bolus 0.04 mg/kg (n = 6), read-out: Cmax, Geometric Mean): 2360 ng/mL | Cmax ([1]; plasma, iv, 0.04 mg/kg, single IV bolus 0.04 mg/kg (n = 6), read-out: Cmax, Mean): 2540 ng/mL | Vd ([1]; plasma, iv, 0.04 mg/kg, single IV bolus 0.04 mg/kg (n = 6), read-out: Vss (volume at steady state), Geometric Mean): 9.33 L | Vd ([1]; plasma, iv, 0.04 mg/kg, single IV bolus 0.04 mg/kg (n = 6), read-out: Vss (volume at steady state), Mean): 9.54 L | half-life ([1]; plasma, iv, 0.04 mg/kg, single IV bolus 0.04 mg/kg (n = 6), read-out: t1/2 (terminal elimination half-life), Geometric Mean): 27.4 min | half-life ([1]; plasma, iv, 0.04 mg/kg, single IV bolus 0.04 mg/kg (n = 6), read-out: t1/2 (terminal elimination half-life), Mean (SD)): 29 min | AUC(0-t) ([1]; plasma, iv, 0.06 mg/kg, single IV bolus 0.06 mg/kg (n = 6), read-out: AUClast, Geometric Mean (converted)): 160 ng·h/mL | AUC(0-t) ([1]; plasma, iv, 0.06 mg/kg, single IV bolus 0.06 mg/kg (n = 6), read-out: AUClast, Mean (converted)): 153 ng·h/mL | clearance ([1]; plasma, iv, 0.06 mg/kg, single IV bolus 0.06 mg/kg (n = 6), read-out: CL (clearance), Geometric Mean): 399 mL/min
